Source: patent publication US10557124B2, “Compositions and methods for obtaining stem cell derived lung tissue, and related uses thereof” (The Regents of the University of Michigan, priority 2015, dated 2020)

Experiments:
Assay type in all cases: cell-based, human
[1] = system: anterior foregut endoderm (hESC-derived, ActivinA then NOG/SB); experiment: qRT-PCR of SHH, NKX2.1, PAX8 in foregut endoderm monolayer cultures treated with FGF/HH modulators; settings: for SHH expression / NKX2.1 expression / PAX8 expression: vs foregut control (FGF2: vs untreated endoderm controls), FGF2 50/500 ng/mL; for NKX2.1 expression / PAX8 expression: Sant-2 10 μM
Description: Many signaling pathways are important for lung induction and development (see, e.g., Wong A P, et al., Nat Biotechnol. 2012 Aug. 26; Huang S X L, et al., Nature; 2013 Dec. 1; 1-11; Firth A L, et al., Proceedings of the National Academy of Sciences. 2014 Apr. 29; 111(17):E1723-30; Mou H, et al., Cell Stem Cell. 2012 Apr. 6; 10(4):385-97; Ghaedi M, et al., J. Clin. Invest. 2013 Nov. 1; 123(11):4950-62; Longmire T A, et al., Cell Stem Cell. 2012 Apr. 6; 10(4):398-411; Rankin S A, Zorn A M. Gene Regulatory Networks Governing Lung Specification. J Cell Biochem. 2014 Mar. 19; Morrisey E E, et al., Developmental Cell. Elsevier Inc; 2010 Jan. 19; 18(1):8-23; Min H, et al., Genes & Development. 1998 Oct. 15; 12(20):3156-61; Weaver M, et al., Development. 2000 June; 127(12):2695-704). […] 2011 Feb. 3; 470(7332):105-9; Wells J M, et al., Development. 2014 February; 141(4):752-60; Motoyama J, et al., Nat Genet. 1998 September; 20(1):54-7) and Hh signaling is important for lung mesenchyme proliferation in vivo (see, e.g., Bellusci S, et al., Development. 1997 January; 124(1):53-63). […] It has been reported that approximately 85-95% of cells are endoderm, but a portion of the remaining cells are mesodermal and this small mesodermal population is maintained in the spheroids and organoids (see, e.g., Spence J R, et al., Nature. 2011 Feb. 3; 470(7332):105-9; McCracken K W, et al., Nature; 2014 Oct. 29; 1-19; Green M D, et al., Nat Biotechnol.; 2011 Feb. 27; 1-7) (FIG. 4). Therefore, based on mouse and hPSC studies, it was hypothesized that FGF and/or HH signaling would induce an NKX2.1+ lung lineage in anterior foregut endoderm. To test this hypothesis experiments initially focused on adherent endoderm monolayer cultures to optimize induction conditions. Cultures were treated for 4 days with ActivinA followed by an additional 4 days with NOG/SB (referred to as Foregut). Controls consisted of ActivinA treatment only followed by no additional growth factors (Endoderm controls), or ActivinA followed by NOG/SB, followed by no additional factors (Foregut controls). All experimental groups were compared to both endoderm and foregut controls (FIG. 6). The ability of FGF2 to induce SHH, NKX2.1 and PAX8 was first tested by exposing foregut cultures to low and high concentrations of FGF2 (50,500 ng/mL) (FIG. 6A). […] It was also observed that dual NOG/SB inhibition in endoderm cultures induced robust NKX2.1 and PAX8 expression without adding FGF2 (FIG. 1B, 6A). Thus, it was desired to determine if NKX2.1 expression in foregut cultures was due to endogenous FGF and/or HH signaling. To test this, the FGF or HH pathway was inhibited with small molecules SU5402 (SU, 10 μm) and Sant-2 (10 μm) respectively (FIG. 6B-C). Treating foregut cultures with the FGF inhibitor SU caused a significant, robust reduction in PAX8 and a modest reduction in SHH, while NKX2.1 expression was unchanged compared to foregut control (FIG. 6B). […] To test if HH signaling was able to induce NKX2.1 in foregut cultures, the Smoothened agonist, SAG (1 μM), was added to foregut cultures. The addition of SAG induced a 6.5 fold increase of NKX2.1 expression above foregut controls (FIG. 6D).
This combination caused an additional increase in NKX2.1 expression (21 fold vs. 6.5 fold with SAG only, when compared to foregut) and a concomitant decrease in PAX8 mRNA (FIG. 6D).
(§1) After differentiation into definitive endoderm, foregut endoderm was differentiated, essentially as described (see, e.g., Green M D, et al., Nat Biotechnol. Nature Publishing Group; 2011 Feb. 27; 1-7). Briefly, cells were incubated in foregut media: Advanced DMEM/F12 plus N-2 and B27 supplement, 10 mM Hepes, lx L-Glutamine (200 mM), lx Penicillin-streptomycin (5,000 U/mL, all from Life Technologies) with 200 ng/mL Noggin (NOG, R&D Systems) and 10 μM SB431542 (SB, Stemgent) for 4 days. […]

[2] = system: anterior foregut endoderm (hESC-derived, ActivinA then NOG/SB); experiment: Immunofluorescence of NKX2.1 and PAX8 positive cells in foregut monolayer cultures; settings: compared to endoderm and foregut controls
Procedure: Importantly, immunofluorescence correlated with QRT-PCR data showing an increased number of NKX2.1+ cells with the addition of SAG only. […] SAG and SAG+SU treated cells also co-expressed FOXA2 and SOX2 confirming their endodermal origin (FIG. 2).
as §1
HLOs with P63+ cells were counted as having proximal airway-like epithelium and HLOs with SFTPC+ cells were counted as having distal airway-like epithelium. The area of proximal epithelium was determined by P63+ECAD+ staining. Area was measured using ImageJ software. Cell quantification of NKX2.1, P63, and DAPI was counted by Metamorph cell counting software. FOXJ1, SFTPC, and HOPX were counted in ImageJ using the cell counter plugin.

[3] = system: foregut spheroids (NOG+SB+FGF4+Ch); experiment: qRT-PCR of foregut spheroids generated with addition of HH agonist SAG; settings: SAG added to NOG+SB+FGF4+Ch spheres; compared to spheres without SAG
Procedure: Based on the observations that stimulating HH and inhibiting FGF signaling strongly enhances NKX2.1 expression while reducing PAX8 expression (FIG. 5), multiple conditions of HH activation and FGF inhibition to induce NKX2.1^HI/PAX8^LO foregut spheroids (NOG/SB/F/Ch) were tested (FIG. 8). […] Therefore, several conditions were also tested that stimulated HH signaling using SAG only, without FGF inhibition. […] Additionally, nuclear NKX2.1 protein expression was found in ECAD+ epithelium which co-expressed endoderm epithelial markers FOXA2 and SOX2 (FIG. 10B, C, FIG. 11). […] Thus, concomitant down-regulation of SOX2 and increased NKX2.1 observed in SAG treated foregut spheroids is consistent with early transcriptional changes that occur during lung specification in mice.
After differentiation into definitive endoderm, cells were incubated in foregut media with NOG, SB, 500 ng/mL FGF4 (R&D Systems), and 2 μM CHIR99021 (Chiron, Stemgent) for 4-6 days. After 4 days with treatment of growth factors, three-dimensional floating spheroids were present in the culture. Three-dimensional spheroids were transferred into Matrigel to support 3D growth as previously described (see, e.g., McCracken K W, et al., Nature Protocols; 2011 Nov. 10; 6(12):1920-8). Briefly, spheroids were embedded in a droplet of Matrigel (BD Bioscience #356237) in one well of a 24 well plate, and incubated at room temperature for 10 minutes. After the Matrigel solidified, foregut media with 1% Fetal bovine serum (FBS, CAT#: 16000-044, Life Technologies) or other growth factors and small molecules were overlaid and replaced every 4 days. Organoids were transferred into new Matrigel droplets every 10 to 15 days.
RNA was extracted from monolayers, spheroids, and organoids using a MagMAX-96 Total RNA Isolation Kit (Life Technologies) and MAG Max Express (Applied Biosystems). RNA quantity and quality were determined spectrophotometrically, using a Nano Drop 2000 (Thermoscientific). Reverse transcription was conducted using the SuperScript VILO kit (Invitrogen), according to manufacturer's protocol. Finally, qRT-PCR was carried out using Quantitect Sybr Green MasterMix (Qiagen) on a Step One Plus Real-Time PCR system (Life Technologies).

[4] = system: NOG/SB/F/Ch/SAG treated foregut spheroids; experiment: Expansion of foregut spheroids in Matrigel into lung organoids; settings: FGF10 500 ng/mL, Matrigel 3D culture
Description: NOG/SB/F/Ch/SAG treated foregut spheroids were embedded in Matrigel to provide a 3D growth environment. Spheroids maintained in basal media supplemented with 1% FBS lost ECAD+ epithelial structures and were mainly comprised of mesenchyme within 20 days of 3D culture (FIG. 9D,E). FGF10 is essential for branching morphogenesis and maintenance of lung progenitor cells during development as well as tissue homeostasis in the adult lung (see, e.g., Motoyama J, et al., Nat Genet. 1998 September; 20(1):54-7; Li Y, et al., Developmental Biology. 2004 Jun. 1; 270(1):214-31; Bellusci S, et al., Development. 1997 January; 124(1):53-63; Min H, et al., Genes & Development. 1998 Oct. 15; 12(20):3156-61; Weaver M, et al., Development. 2000 June; 127(12):2695-704; Agha El E, et al., Development. 2013 Dec. 18; Volckaert T, et al., Development 2013 September; 140(18):3731-42). It was observed that the addition of FGF10 (500 ng/mL) allowed spheroids to expand and be passaged for over 100 days. FGF10 promoted the maintenance of ECAD+ epithelial structures with less mesenchymal contributions compared to both basal and FGF inhibitor conditions (FIG. 10D). […] SOX2+ domains and SOX9+ domains were distributed throughout the entire HLO as determined by whole mount immunofluorescence and confocal Z-sections (FIG. 14). […]

In the case of `Cc1c[nH]c(/C=C2\C(=O)Nc3ccccc32)c1CCC(=O)O` [SU5402], the GLI1 expression ([1]; compared to foregut controls) is reported as “not significantly different”, the PTCH1 expression ([1]; compared to foregut controls) is reported as “not significantly different” and the SHH expression ([1]; SU 10 μM) is reported as “significant reduction”. For the same molecule, the NKX2.1 expression ([1]; SU 10 μM) was “not significantly different” and the PAX8 expression ([1]; SU 10 μM, SAG 1 μM) was “significant reduction”.

For “FGF2: fibroblast growth factor 2 (R&D systems)”, the SHH expression ([1]; SU 10 μM) was “dose dependent increase”, the NKX2.1 expression ([1]; SU 10 μM) was “modest increase” and the PAX8 expression ([1]; SU 10 μM, SAG 1 μM) was “dose dependent increase”.

In the case of Sant-2, the NKX2.1 expression ([1]; SU 10 μM) is reported as “significant reduction”.

For `CNC1CCC(N(Cc2cccc(-c3ccncc3)c2)C(=O)c2sc3ccccc3c2Cl)CC1` (stereo not shown) [SAG], the “increase of NKX2.1 expression” value ([1]; foregut endoderm treated 8 days, SAG 1 μM, SU 10 μM, compared to untreated foregut controls) was 6.5 fold, the PAX8 expression ([1]; SU 10 μM, SAG 1 μM) was “unchanged” and the “NKX2.1+ cells (immunohistochemistry)” value [2] was “more NKX2.1+ cells”. The CDX2 transcript [3] was “reduction”, the HHEX transcript [3] was “not significantly different” and the NKX2.1 transcript [3] was “significant increase”. For the same molecule, the PAX8 transcript [3] was “not significantly different”, the PDX1 transcript [3] was “not significantly different” and the SOX2 transcript [3] was “reduction”.

B1: FGF10: protein that belongs to the fibroblast growth factor (FGF) family (protein, UniProt O15520 38-208, looked up)
Fibroblast growth factor 10: QALGQDMVSPEATNSSSSSFSSPSSAGRHVRSYNHLQGDVRWRKLFSFTKYFLKIEKNGKVSGTKKENCPYSILEITSVEIGVVAVKAINSNYYLAMNKKGKLYGSKEFNNDCKLKERIEENGYNTYASFNWQHNGRQMYVALNGKGAPRRGQKTRRKNTSAHFLPMVVHS
With B1 the “time spheroids could expand and be passaged” value [4] was “over 100 days”.
